The NIST ThermoML archive (doi:10.1021/je7002786)
± gives the expanded uncertainty stated by the source.

What was measured:
[1] = molar heat capacity at constant pressure; conditions: 101.33 kPa, Liquid
[2] = DTA

CCCCn1cc[n+](C)c1.COS(=O)(=O)[O-] [1-butyl-3-methylimidazolium methyl sulfate]
Conditions	Normal melting temperature [°C]	molar heat capacity at constant pressure [J/K/mol]
[1], 283.1 K	–	226.29 ± 91
[1], 293.15 K	–	246.56 ± 99
[1], 303.15 K	–	266.84 ± 110
[1], 313.15 K	–	287.11 ± 120
[1], 323.15 K	–	307.39 ± 120
[1], 333.15 K	–	327.66 ± 130
[1], 343.15 K	–	347.94 ± 140
[1], 353.15 K	–	368.22 ± 150
[1], 363.15 K	–	388.49 ± 160
[1], 373.1 K	–	408.77 ± 160
[2], Crystal	-4.10 ± 1	–

Conditions	Glass transition temperature [°C]
[2]	-91.90 ± 3

CCOS(=O)(=O)[O-].CCn1cc[n+](C)c1 [1-ethyl-3-methylimidazolium ethyl sulfate]
[1], Small sample (50 mg) DSC
Conditions	molar heat capacity at constant pressure [J/K/mol]
283.1 K	387.04 ± 160
293.15 K	409.73 ± 160
303.15 K	432.41 ± 170
313.15 K	455.09 ± 180
323.15 K	477.78 ± 190
333.15 K	500.46 ± 200
343.15 K	523.15 ± 210
353.15 K	545.83 ± 220
363.15 K	568.51 ± 230
373.1 K	591.2 ± 240

Conditions	Glass transition temperature [°C]
[2]	-78.40 ± 3
